{"source": "BindingDB's records for doi:10.7270/Q22Z140X", "about": "(Burnham Center For Chemical Genomics, 2010)", "target": "T1, NACHT, LRR and PYD domains-containing protein 1 (Homo sapiens, UniProt Q9C000)", "T1 sequence (Q9C000 whole entry)": "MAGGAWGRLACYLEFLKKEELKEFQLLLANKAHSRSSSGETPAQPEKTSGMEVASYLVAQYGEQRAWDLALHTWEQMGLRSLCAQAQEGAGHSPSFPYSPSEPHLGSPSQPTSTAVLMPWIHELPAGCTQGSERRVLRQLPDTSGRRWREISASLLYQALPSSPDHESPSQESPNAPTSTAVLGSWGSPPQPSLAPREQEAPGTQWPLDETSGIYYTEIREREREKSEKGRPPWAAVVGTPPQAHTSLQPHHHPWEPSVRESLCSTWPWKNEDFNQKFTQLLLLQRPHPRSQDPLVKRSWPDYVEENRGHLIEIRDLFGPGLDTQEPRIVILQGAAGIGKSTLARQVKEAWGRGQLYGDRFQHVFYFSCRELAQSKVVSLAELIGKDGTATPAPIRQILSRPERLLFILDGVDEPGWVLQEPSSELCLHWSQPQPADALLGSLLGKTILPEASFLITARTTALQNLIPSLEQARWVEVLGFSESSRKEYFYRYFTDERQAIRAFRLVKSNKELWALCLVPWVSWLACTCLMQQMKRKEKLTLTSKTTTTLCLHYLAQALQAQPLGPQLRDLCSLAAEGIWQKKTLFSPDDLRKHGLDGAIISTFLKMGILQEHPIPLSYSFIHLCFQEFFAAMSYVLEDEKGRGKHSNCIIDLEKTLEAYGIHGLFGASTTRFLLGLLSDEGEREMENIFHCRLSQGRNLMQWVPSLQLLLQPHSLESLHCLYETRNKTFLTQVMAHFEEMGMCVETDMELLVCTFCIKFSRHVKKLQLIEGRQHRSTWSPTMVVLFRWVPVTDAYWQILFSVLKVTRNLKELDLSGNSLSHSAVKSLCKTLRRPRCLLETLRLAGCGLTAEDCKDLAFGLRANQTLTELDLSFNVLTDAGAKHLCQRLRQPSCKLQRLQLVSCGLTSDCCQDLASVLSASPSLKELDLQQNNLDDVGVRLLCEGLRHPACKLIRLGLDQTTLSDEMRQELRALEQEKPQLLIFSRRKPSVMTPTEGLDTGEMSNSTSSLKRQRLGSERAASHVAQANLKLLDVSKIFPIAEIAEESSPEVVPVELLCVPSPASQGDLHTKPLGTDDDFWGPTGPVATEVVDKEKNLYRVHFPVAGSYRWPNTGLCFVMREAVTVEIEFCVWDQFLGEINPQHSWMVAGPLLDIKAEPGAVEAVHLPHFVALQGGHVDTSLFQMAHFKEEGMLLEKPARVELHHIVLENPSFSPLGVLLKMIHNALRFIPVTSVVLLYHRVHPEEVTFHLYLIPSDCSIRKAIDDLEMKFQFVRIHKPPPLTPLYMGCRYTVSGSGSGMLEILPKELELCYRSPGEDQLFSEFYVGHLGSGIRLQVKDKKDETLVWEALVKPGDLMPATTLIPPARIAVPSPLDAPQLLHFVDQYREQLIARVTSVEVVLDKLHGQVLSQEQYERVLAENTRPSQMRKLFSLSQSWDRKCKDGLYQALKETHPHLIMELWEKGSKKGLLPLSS", "test": "NALP1 inhibitors in yeast, dose response, luminescent (AID 488860)", "data": [{"compound": "Oc1cc(Sc2nnnn2-c2ccccc2)c(O)n1-c1cccc(Cl)c1", "values": [{"measurement": "IC50", "result": 5.83, "unit": "µM"}]}, {"compound": "Cc1ccc(-n2c(O)cc(Sc3ccccc3C(=O)O)c2O)cc1", "values": [{"measurement": "IC50", "result": 34.4, "unit": "µM"}]}, {"compound": "COc1ccccc1-n1c(O)c2c(c1O)CC(c1ccccc1)CC2", "note": "(stereo not drawn)", "values": [{"measurement": "IC50", "result": "> 100", "unit": "µM"}]}]}
